Laboratory results: ChEMBL document CHEMBL2331498, “Mycoleptodiscins A and B, cytotoxic alkaloids from the endophytic fungus Mycoleptodiscus sp. F0194” (J Nat Prod, 2013)

How the values were obtained:
IMR-90 = experiment: Cytotoxicity against human IMR90 cells after 96 hrs by CellTiter-Glo assay; format: cell-based; conditions: IMR-90, 96 h
[1] = Cytotoxicity against human H522-T1 cells after 96 hrs by CellTiter-Glo assay; format: functional, cell-based; conditions: H522-T1, 96 h
A2058 = experiment: Cytotoxicity against human A2058 cells after 96 hrs by CellTiter-Glo assay; format: functional, cell-based; conditions: A2058, 96 h
[2] = Cytotoxicity against human H460 cells after 96 hrs by CellTiter-Glo assay; format: functional, cell-based; conditions: NCI-H460, 96 h
PC-3 = experiment: Cytotoxicity against human PC3 cells after 96 hrs by CellTiter-Glo assay; format: functional, cell-based; conditions: PC-3, 96 h

Row | Structure (SMILES) | IC50 (IMR-90) [nM] | IC50 [1] [nM] | IC50 (A2058) [nM] | IC50 [2] [nM] | IC50 (PC-3) [nM]
1 | N#CC(=O)C#N [CARBONYL CYANIDE] | 5000 | – | – | – | –
2 | CC1(C)CCC[C@@]2(C)C1CC[C@@]1(C)C3=CC(=O)C(=O)c4[nH]cc(c43)C[C@@]12O (some centres undefined) [MYCOLEPTODISCIN B] | 410 | 630 | 780 | 660 | 600
3 | CC[C@]1(O)C[C@@H]2CN(CCc3c([nH]c4ccccc34)[C@@](C(=O)OC)(c3cc4c(cc3OC)N(C)[C@H]3[C@@](O)(C(=O)OC)[C@H](OC(C)=O)[C@]5(CC)C=CCN6CC[C@]43[C@@H]65)C2)C1 [VINBLASTINE] | – | 9 | – | 2 | 5
